This note sets out measurements from article PMC9004346, “Development of small cyclic peptides targeting the CK2α/β interface” (Chemical Communications (Cambridge, England), 2022).

Each structure is given as a SMILES string. *1 amine or outer side, *2 acyl side, *3 side chain or, on linkers, in order; H or OH if unused. Where a SMILES comes first, the peptide text is derived from it. Bridges are numbered along the chain shown (N, C = ends). [ ]: non-standard residue; d: D form. Trp(2-yl) = O=C([C@H](Cc1c([*:3])[nH]c2ccccc12)N[*:1])[*:2]; hCys = N[C@@H](CCS)C(=O)O

This assay has as its target T1, CK2α (Homo sapiens, UniProt P68400, K74A/K75A/K76A/R21S).
T1 construct: CK2α_KA (residues 2-329) contained four mutations; made in house
T1 sequence (P68400 2-329 R21S/K74A/K75A/K76A): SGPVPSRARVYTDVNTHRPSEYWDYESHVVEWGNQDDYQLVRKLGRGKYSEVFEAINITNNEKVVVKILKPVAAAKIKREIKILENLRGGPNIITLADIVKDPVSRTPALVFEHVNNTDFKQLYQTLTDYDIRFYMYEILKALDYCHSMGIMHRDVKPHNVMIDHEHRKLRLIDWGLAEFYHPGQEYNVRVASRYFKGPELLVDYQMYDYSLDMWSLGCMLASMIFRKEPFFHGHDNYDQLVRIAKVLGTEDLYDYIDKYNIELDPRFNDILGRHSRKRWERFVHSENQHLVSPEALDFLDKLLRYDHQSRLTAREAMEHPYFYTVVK
Put plainly: Isothermal titration calorimetry (ITC) binding to CK2α. The conditions noted are these: 25 °C, CK2α_KA. From the text:
Ligand efficiency (LE) is a commonly used statistic to evaluate and compare the effectiveness of drug candidates.17 Mathematically, it is related to the IC50 of the molecule, as well as the number of heavy atoms (non-hydrogen) it contains, as detailed in Equation 1. 18
Equation 1 Mathematical expression for the ligand efficiencies of compounds.18 pIC50 = -log10(IC50) LE = Number of non ‒ H atoms […]
greatest activity with the fewest heavy atoms.
1.5 Biophysical experiments
1.5.1 Protein expression and purification
Three constructs of CK2α were used in this study. For FP assays, CK2α_WT was used (residues 2-329).
For ITC CK2α_KA construct was used whilst CK2α_FP10 was used for crystallisation purposes. CK2α_KA (residues 2-329) contained four mutations designed to aid crystallisation and solubility by reducing the overall charge of the protein; R21S, K74A, K75A and K76A. CK2α_FP 10 contained one mutation (R21S) and an N-terminal extension […] aimed at mimicking a substrate peptide for CK2α. These constructs were cloned, expressed, and purified as previously described.19 1.5.2 Fluorescence polarisation
IC50’s were determined using a PHERAstar FS plate reader (BMG labtech). The fluorescein probe was measured using 485 nm excitation and 530 nm emission. The fluorescein probe was covalently linked to the N-terminus of the linear CK2β-based peptide RLYGFKIHPMAYQLQ. IC50’s were measured using 500, 167, 16.7, 8.33 and 0 μM of the test peptide at a constant concentration of DMSO. P7C8, P8C9, P+L and P+ were tested at concentrations of 50.0, 16.7, 1.67, 0.833 and 0 μM due to their higher potencies. The experiments were performed in a Corning 384-well plate with final concentrations of 571 nM CK2α_WT (residues 2-329), 7.4 μM fluorescent peptide (fluorescein probe was covalently linked to the N-terminus of the linear CK2β-based peptide RLYGFKIHPMAYQLQ), 200 mM NaCl, 40mM TRIS, 20 mM MgCl2 and pH 7.5. The plates were read after a 45 min incubation period.
1.5.3 Isothermal titration calorimetry
All ITC experiments were performed at 25 °C using a MicroCal ITC-200 (GE Healthcare). […]
(In general: Isothermal titration calorimetry measures the heat released or taken up as one component is titrated into another.)

`CC(=O)N[C@H]1CCSc2[nH]c3ccccc3c2C[C@@H](C(N)=O)NC(=O)[C@H](CCCCN)NC(=O)[C@H](Cc2ccccc2)NC(=O)CNC(=O)[C@H](Cc2ccc(O)cc2)NC(=O)[C@H](CC(C)C)NC(=O)[C@H](CCCNC(=N)N)NC1=O` [Peptide P8C9, (hC)C9RLYGFKWC9] (Ac-[hCys]RLYGFK[Trp(2-yl)]-NH2; thioether 1-8): the affinity, expressed as Kd, was 0.75 µM.
